System: SEM cells
Assay: cell viability relative to DMSO control; higher = less cytotoxic
Settings: 48 h
Procedure, shortened: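 Viability values are per-plate percentages of DMSO wells, with background from cell-free wells. Library compounds in DMSO were pin-dosed, in an 11-point threefold series from 47 μM to 0.79 nM, onto NOMO1 or SEM (500 cells/well) or P12-Ichikawa (1000 cells/well) leukemia cells in 1536-well plates (5 μl). Those cells had been adapted for at least four passages in each medium, and CellTiter-Glo One luminescence was read after 48 h at 37°C.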

[1] = HPLM + 10% dialyzed FBS, 0.000781 µM
[2] = HPLM + 10% dialyzed FBS, 0.00234 µM
[3] = HPLM + 10% dialyzed FBS, 0.00702 µM
[4] = HPLM + 10% dialyzed FBS, 0.0211 µM
[5] = HPLM + 10% dialyzed FBS, 0.0632 µM
[6] = HPLM + 10% dialyzed FBS, 0.19 µM
[7] = HPLM + 10% dialyzed FBS, 0.569 µM
[8] = HPLM + 10% dialyzed FBS, 1.71 µM
[9] = HPLM + 10% dialyzed FBS, 5.12 µM
[10] = HPLM + 10% dialyzed FBS, 15.4 µM
[11] = HPLM + 10% dialyzed FBS, 46.1 µM
[12] = RPMI 5 mM glucose + 10% FBS, 0.000781 µM
[13] = RPMI 5 mM glucose + 10% FBS, 0.00234 µM
[14] = RPMI 5 mM glucose + 10% FBS, 0.00702 µM
[15] = RPMI 5 mM glucose + 10% FBS, 0.0211 µM
[16] = RPMI 5 mM glucose + 10% FBS, 0.0632 µM
[17] = RPMI 5 mM glucose + 10% FBS, 0.19 µM
[18] = RPMI 5 mM glucose + 10% FBS, 0.569 µM
[19] = RPMI 5 mM glucose + 10% FBS, 1.71 µM
[20] = RPMI 5 mM glucose + 10% FBS, 5.12 µM
[21] = RPMI 5 mM glucose + 10% FBS, 15.4 µM
[22] = RPMI 5 mM glucose + 10% FBS, 46.1 µM
[23] = RPMI 5 mM glucose + 10% dialyzed FBS, 0.000781 µM
[24] = RPMI 5 mM glucose + 10% dialyzed FBS, 0.00234 µM
[25] = RPMI 5 mM glucose + 10% dialyzed FBS, 0.00702 µM
[26] = RPMI 5 mM glucose + 10% dialyzed FBS, 0.0211 µM
[27] = RPMI 5 mM glucose + 10% dialyzed FBS, 0.0632 µM
[28] = RPMI 5 mM glucose + 10% dialyzed FBS, 0.19 µM
[29] = RPMI 5 mM glucose + 10% dialyzed FBS, 0.569 µM
[30] = RPMI 5 mM glucose + 10% dialyzed FBS, 1.71 µM
[31] = RPMI 5 mM glucose + 10% dialyzed FBS, 5.12 µM
[32] = RPMI 5 mM glucose + 10% dialyzed FBS, 15.4 µM
[33] = RPMI 5 mM glucose + 10% dialyzed FBS, 46.1 µM

Q: C[S+](=O)([O-])N1CCc2c(-c3cnc(N)nc3)nc(N3CCOCC3)nc21 was tested. Which cell viability [1] did it give?
A: 88.6%

Q: What about the cell viability [2] of the same molecule?
A: 102%

Q: What about the cell viability [3] of the same molecule?
A: 91.6%

Q: And the cell viability [4]?
A: 97.5%

Q: And the cell viability [5]?
A: 100%

Q: What about the cell viability [6] of the same molecule?
A: 96.3%

Q: What about the cell viability [7] of the same molecule?
A: 86%

Q: And the cell viability [8]?
A: 63.4%

Q: What about the cell viability [9] of the same molecule?
A: 62.7%

Q: What about the cell viability [10] of the same molecule?
A: 43.5%

Q: What about the cell viability [11] of the same molecule?
A: 30.5%

Q: What about the cell viability [12] of the same molecule?
A: 68.5%

Q: And the cell viability [13]?
A: 82.1%

Q: What about the cell viability [14] of the same molecule?
A: 70.4%

Q: What about the cell viability [15] of the same molecule?
A: 71.4%

Q: What about the cell viability [16] of the same molecule?
A: 75.3%

Q: What about the cell viability [17] of the same molecule?
A: 66.3%

Q: What about the cell viability [18] of the same molecule?
A: 61%

Q: What about the cell viability [19] of the same molecule?
A: 50.5%

Q: And the cell viability [20]?
A: 38.9%

Q: And the cell viability [21]?
A: 22.2%

Q: What about the cell viability [22] of the same molecule?
A: 18.3%

Q: And the cell viability [23]?
A: 88.7%

Q: What about the cell viability [24] of the same molecule?
A: 105%

Q: What about the cell viability [25] of the same molecule?
A: 113%

Q: What about the cell viability [26] of the same molecule?
A: 104%

Q: What about the cell viability [27] of the same molecule?
A: 92.9%

Q: And the cell viability [28]?
A: 104%

Q: And the cell viability [29]?
A: 98%

Q: What about the cell viability [30] of the same molecule?
A: 65.9%

Q: And the cell viability [31]?
A: 55.3%

Q: What about the cell viability [32] of the same molecule?
A: 33.5%

Q: What about the cell viability [33] of the same molecule?
A: 22.2%

Q: Which cell viability [1] does the source give for COCCCN1CCC(NC(=O)c2cc(Cl)c(N)c3c2OCC3)CC1 here?
A: 86.8%

Q: And the cell viability [2]?
A: 90.1%

Q: What about the cell viability [3] of the same molecule?
A: 115%

Q: What about the cell viability [4] of the same molecule?
A: 116%

Q: What about the cell viability [5] of the same molecule?
A: 129%

Q: What about the cell viability [6] of the same molecule?
A: 123%

Q: What about the cell viability [7] of the same molecule?
A: 114%

Q: What about the cell viability [8] of the same molecule?
A: 119%

Q: What about the cell viability [9] of the same molecule?
A: 147%

Q: And the cell viability [10]?
A: 123%

Q: What about the cell viability [11] of the same molecule?
A: 114%

Q: And the cell viability [12]?
A: 110%

Q: And the cell viability [13]?
A: 115%

Q: What about the cell viability [14] of the same molecule?
A: 116%

Q: What about the cell viability [15] of the same molecule?
A: 122%

Q: What about the cell viability [16] of the same molecule?
A: 149%

Q: And the cell viability [17]?
A: 134%

Q: What about the cell viability [18] of the same molecule?
A: 130%

Q: And the cell viability [19]?
A: 114%

Q: And the cell viability [20]?
A: 147%

Q: And the cell viability [21]?
A: 140%

Q: What about the cell viability [22] of the same molecule?
A: 111%

Q: What about the cell viability [23] of the same molecule?
A: 118%

Q: And the cell viability [24]?
A: 119%

Q: What about the cell viability [25] of the same molecule?
A: 127%

Q: And the cell viability [26]?
A: 114%

Q: And the cell viability [27]?
A: 130%

Q: And the cell viability [28]?
A: 143%

Q: And the cell viability [29]?
A: 116%

Q: What about the cell viability [30] of the same molecule?
A: 156%

Q: And the cell viability [31]?
A: 128%

Q: And the cell viability [32]?
A: 143%

Q: And the cell viability [33]?
A: 113%

Q: How did the cell viability [1] turn out when CN(NC(=O)CC(=O)NN(C)C(=S)c1ccccc1)C(=S)c1ccccc1 was run?
A: 84.1%

Q: What about the cell viability [2] of the same molecule?
A: 89.7%

Q: What about the cell viability [3] of the same molecule?
A: 98.9%

Q: What about the cell viability [4] of the same molecule?
A: 83.7%

Q: What about the cell viability [5] of the same molecule?
A: 15.8%

Q: What about the cell viability [6] of the same molecule?
A: 4.39%

Q: And the cell viability [7]?
A: 3.48%

Q: What about the cell viability [8] of the same molecule?
A: 3.79%

Q: And the cell viability [9]?
A: 4.13%

Q: And the cell viability [10]?
A: 3.69%

Q: What about the cell viability [11] of the same molecule?
A: 4.7%

Q: What about the cell viability [12] of the same molecule?
A: 112%

Q: And the cell viability [13]?
A: 116%

Q: And the cell viability [14]?
A: 117%

Q: And the cell viability [15]?
A: 120%

Q: And the cell viability [16]?
A: 18.3%

Q: What about the cell viability [17] of the same molecule?
A: 6.81%

Q: What about the cell viability [18] of the same molecule?
A: 5.75%

Q: What about the cell viability [19] of the same molecule?
A: 5.74%

Q: And the cell viability [20]?
A: 6.44%

Q: What about the cell viability [21] of the same molecule?
A: 5.8%

Q: And the cell viability [22]?
A: 5.63%

Q: And the cell viability [23]?
A: 78.8%

Q: And the cell viability [24]?
A: 75.8%

Q: What about the cell viability [25] of the same molecule?
A: 80.7%

Q: What about the cell viability [26] of the same molecule?
A: 93.1%

Q: What about the cell viability [27] of the same molecule?
A: 10.5%

Q: What about the cell viability [28] of the same molecule?
A: 5.14%

Q: What about the cell viability [29] of the same molecule?
A: 4.03%

Q: And the cell viability [30]?
A: 4.74%

Q: What about the cell viability [31] of the same molecule?
A: 4.6%

Q: What about the cell viability [32] of the same molecule?
A: 4.37%

Q: What about the cell viability [33] of the same molecule?
A: 5.18%
